Experimental data from PubChem BioAssay (NCI).
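96-well plates; 48 h exposure; 5 concentrations. Endpoints by linear interpolation between flanking doses. Not reached: highest tested concentration assigned. At the GI50, growth is halved. The concentration for full growth arrest is given as TGI.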

Tests used:
Test in all cases: NCI tumour cell line growth inhibition, 48 h
786-0 renal = tested on: 786-0 renal
A498 renal = tested on: A498 renal
A549 NSCLC = tested on: A549 NSCLC
ACHN renal = tested on: ACHN renal
BT-549 breast = tested on: BT-549 breast
CAKI-1 renal = tested on: CAKI-1 renal
CCRF-CEM leukemia = tested on: CCRF-CEM leukemia
COLO 205 colon = tested on: COLO 205 colon
DU-145 prostate = tested on: DU-145 prostate
EKVX NSCLC = tested on: EKVX NSCLC
HCC-2998 colon = tested on: HCC-2998 colon
HCT-116 colon = tested on: HCT-116 colon
HCT-15 colon = tested on: HCT-15 colon
HL-60(TB) leukemia = tested on: HL-60(TB) leukemia
HOP-62 NSCLC = tested on: HOP-62 NSCLC
HOP-92 NSCLC = tested on: HOP-92 NSCLC
HS 578T breast = tested on: HS 578T breast
HT29 colon = tested on: HT29 colon
IGROV1 ovarian = tested on: IGROV1 ovarian
K-562 leukemia = tested on: K-562 leukemia
KM12 colon = tested on: KM12 colon
LOX IMVI melanoma = tested on: LOX IMVI melanoma
M14 melanoma = tested on: M14 melanoma
MCF7 breast = tested on: MCF7 breast
MDA-MB-231 breast = tested on: MDA-MB-231 breast
MOLT-4 leukemia = tested on: MOLT-4 leukemia
NCI-H226 lung = tested on: NCI-H226 lung
NCI-H23 lung = tested on: NCI-H23 lung
NCI-H460 lung = tested on: NCI-H460 lung
NCI-H522 lung = tested on: NCI-H522 lung
NCI/ADR-RES ovarian = tested on: NCI/ADR-RES ovarian
OVCAR-3 ovarian = tested on: OVCAR-3 ovarian
OVCAR-4 ovarian = tested on: OVCAR-4 ovarian
OVCAR-5 ovarian = tested on: OVCAR-5 ovarian
OVCAR-8 ovarian = tested on: OVCAR-8 ovarian
PC-3 prostate = tested on: PC-3 prostate
RPMI-8226 leukemia = tested on: RPMI-8226 leukemia
RXF 393 renal = tested on: RXF 393 renal
SF-268 CNS = tested on: SF-268 CNS
SF-295 CNS = tested on: SF-295 CNS
SF-539 CNS = tested on: SF-539 CNS
SK-MEL-2 melanoma = tested on: SK-MEL-2 melanoma
SK-MEL-28 melanoma = tested on: SK-MEL-28 melanoma
SK-MEL-5 melanoma = tested on: SK-MEL-5 melanoma
SK-OV-3 ovarian = tested on: SK-OV-3 ovarian
SN12C renal = tested on: SN12C renal
SNB-19 CNS = tested on: SNB-19 CNS
SNB-75 CNS = tested on: SNB-75 CNS
SR leukemia = tested on: SR leukemia
SW-620 colon = tested on: SW-620 colon
T-47D breast = tested on: T-47D breast
TK-10 renal = tested on: TK-10 renal
U251 CNS = tested on: U251 CNS
UACC-257 melanoma = tested on: UACC-257 melanoma
UACC-62 melanoma = tested on: UACC-62 melanoma
UO-31 renal = tested on: UO-31 renal

In the case of O=C(Nc1ccc(Br)cc1)c1ccc(Cl)c(Cl)c1, the GI50 (786-0 renal) is reported as 3.92 µM, the TGI (786-0 renal) is reported as > 100 µM and the GI50 (A498 renal) is reported as 0.207 µM. For the same compound, the TGI (A498 renal) was 3.75 µM, the GI50 (A549 NSCLC) was 3.76 µM and the TGI (A549 NSCLC) was > 100 µM. For the same compound, the GI50 (ACHN renal) was 2.83 µM, the TGI (ACHN renal) was > 28.6 µM and the GI50 (BT-549 breast) was 2.74 µM. For the same compound, the TGI (BT-549 breast) was > 29.8 µM, the GI50 (CAKI-1 renal) was 1.51 µM and the TGI (CAKI-1 renal) was 4.58 µM. The GI50 (CCRF-CEM leukemia) was 4.81 µM, the TGI (CCRF-CEM leukemia) was > 100 µM and the GI50 (COLO 205 colon) was 1.81 µM. For the same compound, the TGI (COLO 205 colon) was 3.7 µM, the GI50 (DU-145 prostate) was 3.86 µM and the TGI (DU-145 prostate) was > 100 µM. The GI50 (EKVX NSCLC) was 1.99 µM, the TGI (EKVX NSCLC) was > 100 µM and the GI50 (HCC-2998 colon) was 3.99 µM. For the same compound, the TGI (HCC-2998 colon) was > 71.7 µM, the GI50 (HCT-116 colon) was 2.72 µM and the TGI (HCT-116 colon) was 8.07 µM. The GI50 (HCT-15 colon) was 3.02 µM, the TGI (HCT-15 colon) was > 100 µM and the GI50 (HL-60(TB) leukemia) was 2.14 µM. For the same compound, the TGI (HL-60(TB) leukemia) was 7.37 µM, the GI50 (HOP-62 NSCLC) was 3.86 µM and the TGI (HOP-62 NSCLC) was > 52.3 µM. For the same compound, the GI50 (HOP-92 NSCLC) was 0.341 µM, the TGI (HOP-92 NSCLC) was 5.1 µM and the GI50 (HS 578T breast) was 3.8 µM. For the same compound, the TGI (HS 578T breast) was > 100 µM, the GI50 (HT29 colon) was 3.42 µM and the TGI (HT29 colon) was > 100 µM. The GI50 (IGROV1 ovarian) was 2.85 µM, the TGI (IGROV1 ovarian) was > 100 µM and the GI50 (K-562 leukemia) was 3.99 µM. For the same compound, the TGI (K-562 leukemia) was > 100 µM, the GI50 (KM12 colon) was 3.16 µM and the TGI (KM12 colon) was > 100 µM. It also gave a GI50 (LOX IMVI melanoma) of 2.56 µM, a TGI (LOX IMVI melanoma) of 7.67 µM and a GI50 (M14 melanoma) of 3.76 µM. The TGI (M14 melanoma) was > 100 µM, the GI50 (MCF7 breast) was 2.19 µM and the TGI (MCF7 breast) was > 31.4 µM. For the same compound, the GI50 (MDA-MB-231 breast) was 3.24 µM, the TGI (MDA-MB-231 breast) was > 100 µM and the GI50 (MOLT-4 leukemia) was 3.17 µM. For the same compound, the TGI (MOLT-4 leukemia) was > 100 µM, the GI50 (NCI-H226 lung) was 2.86 µM and the TGI (NCI-H226 lung) was > 100 µM. For the same compound, the GI50 (NCI-H23 lung) was 2.32 µM, the TGI (NCI-H23 lung) was 7.32 µM and the GI50 (NCI-H460 lung) was 3.16 µM. For the same compound, the TGI (NCI-H460 lung) was > 30.5 µM, the GI50 (NCI-H522 lung) was 2.75 µM and the TGI (NCI-H522 lung) was 16.2 µM. For the same compound, the GI50 (NCI/ADR-RES ovarian) was 3.24 µM, the TGI (NCI/ADR-RES ovarian) was > 100 µM and the GI50 (OVCAR-3 ovarian) was 2.48 µM. For the same compound, the TGI (OVCAR-3 ovarian) was 7.18 µM, the GI50 (OVCAR-4 ovarian) was 3.78 µM and the TGI (OVCAR-4 ovarian) was > 100 µM. For the same compound, the GI50 (OVCAR-5 ovarian) was 3.9 µM, the TGI (OVCAR-5 ovarian) was > 100 µM and the GI50 (OVCAR-8 ovarian) was 4.2 µM. The TGI (OVCAR-8 ovarian) was > 100 µM, the GI50 (PC-3 prostate) was 2.47 µM and the TGI (PC-3 prostate) was > 30.8 µM. For the same compound, the GI50 (RPMI-8226 leukemia) was 3.15 µM, the TGI (RPMI-8226 leukemia) was > 100 µM and the GI50 (RXF 393 renal) was > 28 µM. For the same compound, the TGI (RXF 393 renal) was > 100 µM, the GI50 (SF-268 CNS) was 4.51 µM and the TGI (SF-268 CNS) was > 100 µM. It also gave a GI50 (SF-295 CNS) of 2.03 µM, a TGI (SF-295 CNS) of 4.94 µM and a GI50 (SF-539 CNS) of 4.01 µM. For the same compound, the TGI (SF-539 CNS) was > 100 µM, the GI50 (SK-MEL-2 melanoma) was 3.59 µM and the TGI (SK-MEL-2 melanoma) was > 29.8 µM. The GI50 (SK-MEL-28 melanoma) was 3.93 µM, the TGI (SK-MEL-28 melanoma) was > 100 µM and the GI50 (SK-MEL-5 melanoma) was 3.45 µM. The TGI (SK-MEL-5 melanoma) was > 100 µM, the GI50 (SK-OV-3 ovarian) was 3.17 µM and the TGI (SK-OV-3 ovarian) was > 100 µM. For the same compound, the GI50 (SN12C renal) was 3.21 µM, the TGI (SN12C renal) was > 100 µM and the GI50 (SNB-19 CNS) was 3.87 µM. For the same compound, the TGI (SNB-19 CNS) was > 100 µM, the GI50 (SNB-75 CNS) was 3.2 µM and the TGI (SNB-75 CNS) was > 31 µM. The GI50 (SR leukemia) was 4.35 µM, the TGI (SR leukemia) was > 100 µM and the GI50 (SW-620 colon) was 3.59 µM. The TGI (SW-620 colon) was > 100 µM, the GI50 (T-47D breast) was 2 µM and the TGI (T-47D breast) was > 27.9 µM. For the same compound, the GI50 (TK-10 renal) was 4.78 µM, the TGI (TK-10 renal) was > 100 µM and the GI50 (U251 CNS) was 3.27 µM. The TGI (U251 CNS) was > 100 µM, the GI50 (UACC-257 melanoma) was 3.69 µM and the TGI (UACC-257 melanoma) was > 89.2 µM. For the same compound, the GI50 (UACC-62 melanoma) was 2.92 µM, the TGI (UACC-62 melanoma) was > 100 µM and the GI50 (UO-31 renal) was 2.31 µM. For the same compound, the TGI (UO-31 renal) was > 100 µM.
